Experimental data: patent publication US8383582B2, “Inhibitor against forming biofilm comprising κ-casein macropeptide” (Industry Foundation of Chonnam National University, priority 2010, dated 2013)

Key:
[1] = tested on: L. monocytogenes 3990 and 18; test: Flow chamber biofilm assay (glass capillary tubes, continuous flow); type: cell-based, Listeria monocytogenes; conditions: 0.4 mg/ml CMP
Protocol: Under continuous flow conditions, biofilms were grown in glass capillary tubes by using a slight modification of the previously described method (Purevdorj et al., 2002). The flow chambers, with individual channel dimensions of 3 mm×3 mm×50 mm (Stovall Life Sciences, Inc., Greensboro, N.C., USA), were inoculated with 1 ml (˜10^9 CFU/ml) of the overnight cultures of L. monocytogenes grown in TSBYE. The inoculum was injected to fill the inside of the glass tubes by using a syringe. The tubing upstream of the glass tube was clamped, and the system allowed standing without flow for 30 min at room temperature. After inoculation, the capillary tubes were mounted on a standard microscope slide. The system was switched to continuous culture mode by delivering MWB to the home-made carboy with a flow rate of 0.1 ml/min at 30° C. […] The biofilms developed in the flow chambers were monitored by using transmitted light and 10× objective lenses with an Olympus CH2 microscope (Olympus, Tokyo, Japan).

[2] = tested on: virulence-associated genes of L. monocytogenes; test: Semi-quantitative RT-PCR of virulence-associated genes; type: cell-based, Listeria monocytogenes; conditions: 0.4 mg/ml CMP; L. monocytogenes Scott A infected HT-29 cells
Protocol: The regulation of virulence-associated genes was investigated by using semi-quantitative RT-PCR techniques. Total RNA was isolated from the each treated samples using a RNeasy™ Total RNA Kit (Qiagen) with manufacturer's manuals. One μg total RNA was reverse transcribed in 20 μl reaction mixtures with SuperScript™ III First-Strand cDNA Synthesis Kit (Invitrogen, Carlsbad, Calif.). Then, cDNA were then amplified by using Taq DNA polymerase (TaKaRa, Japan). For the iap, denaturation for 5 min at 94° C. was followed by 40 cycles composed of 30 s denaturation at 94° C., 45 s annealing at 60° C. (TABLE 4), and 1 min elongation at 72° C. Except for the iap, denaturation for 5 min at 94° C. was followed by 35 cycles composed of 1 min denaturation at 94° C., 2 min annealing at 60° C. (TABLE 4), and 1 min elongation at 72° C. The last cycle was followed by 10 min final elongation at 72° C. Oligonucleotide (Bioneer, Daejun, Korea) sequences used for the amplification of each gene fragments including expression of proteins (HT-29) are shown in TABLE 4 (Haller et al., 2000). The RT-PCR products were electrophoresed in a 1.5% agarose gel and visualized by ethidium bromide (EtBr) staining. The intensity of each band was determined by densitometric analysis of gels using Kodak DC290 zoom digital camera and Kodak 1D image analysis software (Eastman Kodak Company, Rochester, N.Y., USA).

For κ-casein macropeptide [CMP], the “microcolonies or aggregates seen” value ([1]; same incubation times as control (12-18 h)) was “very few microcolonies or aggregates”, the “biofilm biomass compared to control” value ([1]; strains 3990 and 18, 24 h, glass capillary tubes, continuous flow) was “decreased biomass” and the “mRNA level of hlyA” value [2] was “significantly repressed”. The “mRNA level of iap” value [2] was “significantly repressed”, the “mRNA level of inlA” value [2] was “significantly repressed” and the “mRNA level of plcB” value [2] was “significantly repressed”.
